The values that follow come from ChEMBL document CHEMBL1156029, “The discovery of thienopyridine analogues as potent IkappaB kinase beta inhibitors. Part II” (Bioorg Med Chem Lett, 2009).

Molecules are shown by their SMILES.

As usually defined, the IC50 is the concentration that inhibits the measured activity by half. A lower IC50 goes with higher potency.

The target in the experiment is T1, Inhibitor of nuclear factor kappa-B kinase subunit beta (Homo sapiens, UniProt O14920).
T1 sequence (O14920 whole entry): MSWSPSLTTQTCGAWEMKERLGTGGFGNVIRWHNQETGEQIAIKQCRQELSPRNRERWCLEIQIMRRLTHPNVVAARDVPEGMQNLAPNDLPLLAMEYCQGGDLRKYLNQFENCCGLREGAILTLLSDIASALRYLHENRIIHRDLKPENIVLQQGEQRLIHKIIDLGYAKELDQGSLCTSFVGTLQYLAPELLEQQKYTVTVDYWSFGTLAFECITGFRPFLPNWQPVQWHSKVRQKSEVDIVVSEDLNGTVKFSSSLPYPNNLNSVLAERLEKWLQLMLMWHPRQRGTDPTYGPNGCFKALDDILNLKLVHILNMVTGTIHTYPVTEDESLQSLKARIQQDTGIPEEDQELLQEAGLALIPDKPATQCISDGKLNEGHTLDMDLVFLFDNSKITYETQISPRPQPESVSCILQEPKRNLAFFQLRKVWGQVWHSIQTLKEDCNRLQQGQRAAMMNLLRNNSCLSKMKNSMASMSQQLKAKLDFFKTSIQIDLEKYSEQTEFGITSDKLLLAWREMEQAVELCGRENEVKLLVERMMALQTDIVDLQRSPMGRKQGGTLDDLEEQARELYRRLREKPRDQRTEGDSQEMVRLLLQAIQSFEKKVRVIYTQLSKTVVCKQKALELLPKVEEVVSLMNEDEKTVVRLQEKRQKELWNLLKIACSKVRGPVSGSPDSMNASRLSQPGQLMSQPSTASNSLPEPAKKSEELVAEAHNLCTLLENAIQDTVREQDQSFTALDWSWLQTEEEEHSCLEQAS
As to the kind of experiment: Inhibition of Flag epitope-tagged IKK-beta preincubated for 5 mins by scintillation proximity assay.
The molecule `Cc1cc(-c2cc3ccccc3o2)c2c(N)c(C(N)=O)sc2n1` yielded a half-inhibitory concentration (IC50) of 16900 nM.
Under `Cc1cc(-c2ccc(Cl)cc2)c2c(N)c(C(N)=O)sc2n1` stands 14000 nM; under `CCCc1cc(N2CCC(O)C(C)(C)C2)nc2sc(C(N)=O)c(N)c12` (single isomer, unassigned; enantiomer 1), 42 nM; under `Cc1cc(-c2ccco2)c2c(N)c(C(N)=O)sc2n1`, 1100 nM.
On to `CCCc1cc(N2CCNC(=O)C2)nc2sc(C(N)=O)c(N)c12`, for which half-maximal inhibition (IC50) was put at 2000 nM.
Take `Cc1cc(-c2ccc(O)cc2)c2c(N)c(C(N)=O)sc2n1`: the 50% inhibitory concentration (IC50) was > 20000 nM.
With `Cc1cc(N2CCOCC2)nc2sc(C(N)=O)c(N)c12`, half-maximal inhibition (IC50) required 2500 nM.
Under `CCCc1cc(C)nc2sc(C(N)=O)c(N)c12` stands 1300 nM; under `Cc1cc(N2CCC(O)CC2)nc2sc(C(N)=O)c(N)c12`, 750 nM; under `CCCOc1ccnc2sc(C(N)=O)c(N)c12`, 2200 nM.
To `COCCOc1ccnc2sc(C(N)=O)c(N)c12` belongs 10800 nM.
Regarding `CCOc1ccnc2sc(C(N)=O)c(N)c12`, half-maximal inhibition (IC50) required 2000 nM.
Consider `CCCc1cc(N2CCN(C(N)=O)CC2)nc2sc(C(N)=O)c(N)c12`, for which 150 nM corresponded to half-maximal inhibition (IC50).
For `CCCc1cc(N2CCCCC(N)C2)nc2sc(C(N)=O)c(N)c12` (stereo unspecified), the 50% inhibitory concentration (IC50) came out at 630 nM.
Consider `Cc1cc(OCCCN)nc2sc(C(N)=O)c(N)c12`, for which the IC50 is > 50000 nM.
The molecule `Cc1ccc2c(N)c(C(N)=O)sc2n1` came in with a half-inhibitory concentration (IC50) of 12700 nM.
To `CCCc1cc(N2CCCNC(=O)C2)nc2sc(C(N)=O)c(N)c12` belongs 140 nM.
In turn, `Cc1cc(-c2ccccc2)c2c(N)c(C(N)=O)sc2n1` returned an IC50 of 7400 nM.
To `CCCc1cc(N2CCC(OC)CC2)nc2sc(C(N)=O)c(N)c12` belongs 680 nM; to `Cc1cc(CO)c2c(N)c(C(N)=O)sc2n1`, 13500 nM.
As to `Cc1ccc(-c2cc(C)nc3sc(C(N)=O)c(N)c23)cc1`, the concentration for half-maximal inhibition (IC50) is 8500 nM.
In the case of `Cc1cc(N2CCCC(O)C2)nc2sc(C(N)=O)c(N)c12` (stereo unspecified), the IC50 was 2400 nM.
Under `Cc1cc(C)c2c(N)c(C(N)=O)sc2n1` stands 2700 nM; under `Cc1cc(-c2cccs2)c2c(N)c(C(N)=O)sc2n1`, 2000 nM.
For the molecule `Cc1cc(OCCO)nc2sc(C(N)=O)c(N)c12`, the IC50 stood at 6600 nM.
For the molecule `CCCc1cc(N2CC[C@@H](O)C2)nc2sc(C(N)=O)c(N)c12`, inhibition was half-maximal at 1950 nM (IC50).
Turning to `CCCc1cc(N2CC[C@H](O)C2)nc2sc(C(N)=O)c(N)c12`, the half-maximal inhibitory concentration (IC50) is 1450 nM.
`CCCc1cc(N2CCN(C)CC2)nc2sc(C(N)=O)c(N)c12`: the half-maximal inhibitory concentration (IC50) came to 520 nM.
On to `COc1ccnc2sc(C(N)=O)c(N)c12`, for which 4700 nM corresponded to half-maximal inhibition (IC50).
`Cc1cc(-c2ccccn2)c2c(N)c(C(N)=O)sc2n1`: 6000 nM corresponded to half-maximal inhibition (IC50).
As to `Cc1cc(CC(C)C)c2c(N)c(C(N)=O)sc2n1`, the 50% inhibitory concentration (IC50) came out at 2500 nM.
Molecule `Cc1cc(-c2ccc(S(C)(=O)=O)cc2)c2c(N)c(C(N)=O)sc2n1` showed a half-maximal inhibitory concentration (IC50) of 1300 nM.
`CCCc1cc(N2CCC(NS(C)(=O)=O)CC2)nc2sc(C(N)=O)c(N)c12` yielded an IC50 of 98 nM.
With `Cc1cc(NCCO)nc2sc(C(N)=O)c(N)c12`, the IC50 amounted to 5800 nM.
To `Cc1cc(N2CCCCC2)nc2sc(C(N)=O)c(N)c12` belongs 2400 nM; to `CCCc1cc(N2CCCNCC2)nc2sc(C(N)=O)c(N)c12`, 72 nM.
Regarding `CCCc1cc(N2CCC(N(C)C)CC2)nc2sc(C(N)=O)c(N)c12`, the half-inhibitory concentration (IC50) worked out at 680 nM.
In turn, `CCCc1cc(N2CCC(NC)CC2)nc2sc(C(N)=O)c(N)c12` had an IC50 of 120 nM.
Turning to `Cc1cc(OCCN)nc2sc(C(N)=O)c(N)c12`, the IC50 turned out to be 2900 nM.
`CCCc1cc(N2CC[C@@H](N)C2)nc2sc(C(N)=O)c(N)c12` showed an IC50 of 500 nM.
In the case of `CCCc1cc(N2CCC(O)C(C)(C)C2)nc2sc(C(N)=O)c(N)c12` (single isomer, unassigned; enantiomer 2), the IC50 was determined as 240 nM.
Regarding `CCCc1cc(N2CCC(C(N)=O)CC2)nc2sc(C(N)=O)c(N)c12`, half-maximal inhibition (IC50) was put at 1300 nM.
As to `CCCc1cc(N2CCC(C(=O)OC)CC2)nc2sc(C(N)=O)c(N)c12`, the IC50 worked out at 7800 nM.
Turning to `Cc1cc(N2CCNCC2)nc2sc(C(N)=O)c(N)c12`, the concentration for half-maximal inhibition (IC50) stood at 680 nM.
Under `Cc1cc(OCCCO)nc2sc(C(N)=O)c(N)c12` stands 5100 nM; under `CCCc1cc(N2CC[C@H](N)C2)nc2sc(C(N)=O)c(N)c12`, 590 nM.
